Structures can show the parent of a compound that is named as a salt.
system: ACHN cell line; experiment: drug screen of the SelleckChem kinase inhibitor library with and without 5 uM SU-329, Cell-Titer Glo after 5 days; assay type: cell-based; details: kinase inhibitor at 200 nM with and without 5 uM SU329; ACHN cell line; 5 days; Cell-Titer Glo

Row | Compound | log2fc
1 | Cc1ccc(-n2nc(C(C)(C)C)cc2NC(=O)Nc2ccc(OCCN3CCOCC3)c3ccccc23)cc1 [Doramapimod (BIRB 796)] | −0.5477
2 | O=C1Nc2cc(Br)ccc2/C1=C1/Nc2ccccc2/C1=N\O [BIO] | −0.1795
3 | CCN1CCN(Cc2ccc(C(=O)Nc3ccc(C)c(Oc4ccc5c(c4)CC(=O)N5)c3)cc2C(F)(F)F)CC1 [DDR1-IN-1] | −0.4228
4 | CCS(=O)(=O)Nc1ccc2c(c1)/C(=C(/Nc1ccc(CN3CCCCC3)cc1)c1ccccc1)C(=O)N2 [Hesperadin] | 0.1006
5 | C=CC(=O)Nc1cccc(Oc2nc(Nc3ccc(N4CCN(C)CC4)cc3OC)ncc2Cl)c1 [WZ4003] | −0.1405
6 | CNC(=O)c1cc(COc2nnc(Nc3ccc(Cl)cc3)c3ccoc23)ccn1 [Telatinib] | 0.2479
7 | Oc1c2ccccc2c2c3c(cccc13)N=N2 [SP600125, reference compound] | 0.06823
8 | O=C1NC(=O)C(=Cc2ccc(-c3ccc(F)cc3)o2)S1 (stereo in doubt) [CAY10505] | 0.3828
9 | N#Cc1ccc2[nH]c(O)c(-c3ccc(CN4CCOCC4)cn3)c2c1 [AZD1080] | 1.953
10 | O=C(c1cccc(Cl)c1F)N1CCN(Cc2cccc(Nc3nccs3)n2)CC1 [MK-8745] | −0.3779
11 | CNC(=O)c1c(F)cccc1Nc1nc(Nc2cc3c(cc2OC)CCN3C(=O)CN(C)C)nc2[nH]ccc12 [GSK1838705A] | −0.03081
12 | S=C(NCc1ccc2c(c1)OCO2)N1CCN(c2ncnc3c2oc2ccccc23)CC1 [Amuvatinib (MP-470)] | −0.2594
13 | CO[C@H]1C[C@@H]2CC[C@@H](C)[C@@](O)(O2)C(=O)C(=O)N2CCCC[C@H]2C(=O)O[C@H]([C@H](C)C[C@@H]2CC[C@@H](OP(C)(C)=O)[C@H](OC)C2)CC(=O)[C@H](C)/C=C(\C)[C@@H](O)[C@@H](OC)C(=O)[C@H](C)C[C@H](C)/C=C/C=C/C=C/1C [Ridaforolimus (Deforolimus, MK-8669)] | −1.384
14 | O=C(Nc1ccc(-c2ccnc(Nc3ccc(N4CCOCC4)cc3)n2)cc1)C1CCCN1 (centres unmarked) [XL019] | −0.1669
15 | COc1cc(OC)c(/C=C/S(=O)(=O)Cc2ccc(OC)c(NCC(=O)O)c2)c(OC)c1 [Rigosertib (ON-01910)] | 0.6643
16 | COc1cc2nccc(Oc3ccc(NC(=O)C4(C(=O)Nc5ccc(F)cc5)CC4)cc3)c2cc1OC [Cabozantinib (XL184, BMS-907351)] | 0.001197
17 | Cc1cc(Nc2nc(N[C@@H](C)c3ccc(F)cc3)c(C#N)cc2F)n[nH]1 [AZ 960] | 0.979
18 | O=C(O)c1ccc(Nc2ncc3c(n2)-c2ccc(Cl)cc2C(c2c(F)cccc2F)=NC3)cc1 [MLN8054] | 0.07059
19 | C[C@H]1[C@H](C)CC[C@]2(C(=O)O)CC[C@]3(C)C(=CC[C@@H]4[C@@]5(C)C[C@@H](O)[C@H](O)[C@@](C)(CO)[C@@H]5CC[C@]43C)[C@H]12 [Asiatic Acid] | 0.1505
20 | Cc1nc(Nc2ncc(C(=O)Nc3c(C)cccc3Cl)s2)cc(N2CCN(CCO)CC2)n1 [Dasatinib, dasatinib, reference compound] | −0.196
21 | COc1cc2ncnc(Nc3ccc(O)c(Br)c3)c2cc1OC [WHI-P154] | 0.511
22 | CNC(=O)c1cccc(-c2ccc3c(N4CCOC[C@@H]4C)nc(N4CCOC[C@@H]4C)nc3n2)c1 [Vistusertib (AZD2014)] | −0.8127
23 | CN1CCN(S(=O)(=O)c2ccc(-c3cnc(N)c(C(=O)Nc4cccnc4)n3)cc2)CC1 [AZD2858] | 0.1991

Row | Compound | log2fc
24 | C[C@@H]1COCCN1c1cc(C2(S(C)(=O)=O)CC2)nc(-c2cccc3[nH]ccc23)n1 [AZ20] | −0.01528
25 | CCN(CC)CCNC(=O)c1c(C)[nH]c(/C=C2\C(=O)Nc3ccc(F)cc32)c1C [Sunitinib Malate, sunitinib, reference compound] | −0.1249
26 | CN(c1ncccc1CNc1nc(Nc2ccc3c(c2)CC(=O)N3)ncc1C(F)(F)F)S(C)(=O)=O [PF-562271] | 0.8258
27 | COc1cccc(-c2cc(=O)c3ccccc3o2)c1N [PD98059, reference compound] | 0.3369
28 | Cc1ccc(NC(=O)c2ccc(CN3CCN(C)CC3)cc2)cc1Nc1nc(-c2cccnc2)cs1 [Masitinib (AB1010)] | 0.1874
29 | CNC(=O)c1ccccc1Sc1ccc2c(/C=C/c3ccccn3)n[nH]c2c1 [Axitinib] | 0.00155
30 | Cc1cc(N2CCOCC2)cc2[nH]c(-c3c(NC[C@@H](O)c4cccc(Cl)c4)cc[nH]c3=O)nc12 [BMS-536924] | 0.4161
31 | Cc1ccc(C(=O)Nc2cccc(C(F)(F)F)c2)cc1Nc1nc(-c2cccnc2)nc2c1cnn2C [NVP-BHG712] | 0.02396
32 | GZD824 Dimesylate | 1.434
33 | COc1cc2nccc(Oc3ccc(NC(=O)NC4CC4)c(Cl)c3)c2cc1C(N)=O [Lenvatinib (E7080)] | −0.314
34 | CC(C)(C)c1ccc(S(=O)(=O)/C=C/C#N)cc1 [Bay 11-7085] | 0.004153
35 | Cc1csc(-c2nnc(Nc3ccc(Oc4ncccc4-c4ccnc(N)n4)cc3)c3ccccc23)c1 [AMG-900] | 0.883
36 | Cc1cc(C)c(/C=C2\C(=O)Nc3ccccc32)[nH]1 [Semaxanib (SU5416)] | −0.8277
37 | CNC(=O)c1cc(Oc2ccc(NC(=O)Nc3cc(C(C)(C)C)nn3-c3ccc4ncccc4c3)c(F)c2)ccn1 [Rebastinib (DCC-2036)] | 0.007715
38 | COc1cc(Nc2ncc(F)c(Nc3ccc4c(n3)N(COP(=O)(O)O)C(=O)C(C)(C)O4)n2)cc(OC)c1OC [Fostamatinib (R788)] | 0.7242
39 | Cl.Cl.Clc1ccc(Nc2nnc(Cc3ccncc3)c3ccccc23)cc1 [Vatalanib (PTK787) 2HCl] | −0.4289
40 | O=c1c(O)c(-c2ccc(O)c(O)c2)oc2cc(O)cc(O)c12 [Quercetin] | −0.449
41 | COc1cc(Nc2ncc(F)c(Nc3ccc4c(n3)NC(=O)C(C)(C)O4)n2)cc(OC)c1OC [R406 (free base)] | 0.8334
42 | CN(C)Cc1cccc(N/C(=C2\C(=O)Nc3cc(C(N)=O)ccc32)c2ccccc2)c1 [BIX 02188] | 0.2216
43 | Skepinone-L | −0.7997
44 | CCN(CC)CCCCNc1ncc2cc(-c3cc(OC)cc(OC)c3)c(NC(=O)NC(C)(C)C)nc2n1 [PD173074] | 0.1032
45 | Cc1ncc(-c2ccnc(Nc3ccc(S(C)(=O)=O)cc3)n2)n1C(C)C [AZD5438] | 1.871
46 | O=C1Nc2ccc(I)cc2/C1=C/c1cc(Br)c(O)c(Br)c1 [GW5074] | 0.4071

Row | Compound | log2fc
47 | CNc1nc(Nc2cn(C(C)(C)C#N)nc2C)ncc1C(F)(F)F [GNE-0877] | 0.3098
48 | CN(C)CCCn1cc(C2=C(c3c[nH]c4ccccc34)C(=O)NC2=O)c2ccccc21 [Bisindolylmaleimide I (GF109203X)] | −0.2332
49 | Cc1cc(O)c2c(c1)C(=O)c1cccc(O)c1C2=O [Chrysophanic Acid] | −0.1902
50 | O=C(NOC[C@H](O)CO)c1ccc(F)c(F)c1Nc1ccc(I)cc1F [PD0325901] | 0.3925
51 | CCS(=O)(=O)c1cccc(-c2cc(C(=O)NC3CCN(C)CC3)c(C)c3[nH]c4ncc(C)cc4c23)c1 [TAK-901] | 0.2818
52 | O=C(NOCC1CC1)c1ccc(F)c(F)c1Nc1ccc(I)cc1Cl [PD184352 (CI-1040), PD184352, reference compound] | 0.3257
53 | COc1cc(N2CCC(N(C)C)CC2)ccc1Nc1ncc(Cl)c(Nc2ccccc2P(C)(C)=O)n1 [ALK-IN-1] | −0.4692
54 | C=CC(=O)Nc1cccc(Sc2nc(Nc3ccc(N4CCN(C)CC4)cc3)ncc2Cl)c1 [WZ8040, reference compound] | 0.02092
55 | COc1ncc(-c2ccc3nccc(-c4ccnnc4)c3c2)cc1NS(=O)(=O)c1ccc(F)cc1F [Omipalisib (GSK2126458, GSK458)] | 0.5342
56 | Cc1cnc(Nc2ccc(OCCN3CCCC3)cc2)nc1Nc1cccc(S(=O)(=O)NC(C)(C)C)c1 [Fedratinib (SAR302503, TG101348)] | −0.003444
57 | Cc1ccc(NC(=O)c2ccc(CN3CCN(C)CC3)cc2)cc1Nc1nccc(-c2cccnc2)n1 [Imatinib Mesylate (STI571), imatinib, reference compound] | 0.1536
58 | OCCn1cc(-c2cnc3nnn(Cc4ccc5ncccc5c4)c3n2)cn1 [PF-04217903] | 0.2177
59 | CCN1CCN(C(=O)Cc2ccc(Nc3ncc(F)c(Nc4ccc(C(=O)Nc5ccccc5Cl)cc4)n3)cc2)CC1 [Aurora A Inhibitor I] | −0.1962
60 | CS(=O)(=O)CCNCc1ccc(-c2ccc3ncnc(Nc4ccc(OCc5cccc(F)c5)c(Cl)c4)c3c2)o1 [Lapatinib (GW-572016) Ditosylate, lapatinib, reference compound] | 0.212
61 | CC(=O)Nc1cccc(-n2c(=O)n(C3CC3)c(=O)c3c(Nc4ccc(I)cc4F)n(C)c(=O)c(C)c32)c1 [Trametinib (GSK1120212)] | 0.4803
62 | O=C(NC(NC(=S)Nc1ccc(F)c([N+](=O)[O-])c1)C(Cl)(Cl)Cl)C(c1ccccc1)c1ccccc1 (centres unmarked) [CGK 733] | 0.1923
63 | C=CC(=O)Nc1cccc(Oc2nc(Nc3ccc(N4CCN(C)CC4)cc3OC)ncc2Cl)c1 [WZ4002, reference compound] | −0.07545
64 | SNS-314 Mesylate | 0.4469
65 | CO[C@H]1C[C@@H]2CC[C@@H](C)[C@@](O)(O2)C(=O)C(=O)N2CCCC[C@H]2C(=O)O[C@H]([C@H](C)C[C@@H]2CC[C@@H](OC(=O)C(C)(CO)CO)[C@H](OC)C2)CC(=O)[C@H](C)/C=C(\C)[C@@H](O)[C@@H](OC)C(=O)[C@H](C)C[C@H](C)/C=C/C=C/C=C/1C [Temsirolimus (CCI-779, NSC 683864)] | −1.524
66 | Cc1cc(Nc2ncc(Cl)c(Nc3ccccc3S(=O)(=O)C(C)C)n2)c(OC(C)C)cc1C1CCNCC1 [Ceritinib (LDK378)] | 0.2988
67 | Cl.Cl.NC1(c2ccc(-c3nc4ccn5c(=O)[nH]nc5c4cc3-c3ccccc3)cc2)CCC1 [MK-2206 2HCl] | −0.1575
68 | CO[C@H]1C[C@@H]2CC[C@@H](C)[C@@](O)(O2)C(=O)C(=O)N2CCCC[C@H]2C(=O)O[C@H]([C@H](C)C[C@@H]2CC[C@@H](O)[C@H](OC)C2)CC(=O)[C@H](C)/C=C(\C)[C@@H](O)[C@@H](OC)C(=O)[C@H](C)C[C@H](C)/C=C/C=C/C=C/1C [Rapamycin (Sirolimus)] | −1.552
